The structures appear in SMILES notation.

For experiment [1], the target named is T1, isolated kinase domain of the human FLT3 receptor (a.a. 571-993) (Homo sapiens, UniProt P36888).
T1 construct: human FLT3 receptor (a.a. 571-993)
T1 sequence (P36888 571-993): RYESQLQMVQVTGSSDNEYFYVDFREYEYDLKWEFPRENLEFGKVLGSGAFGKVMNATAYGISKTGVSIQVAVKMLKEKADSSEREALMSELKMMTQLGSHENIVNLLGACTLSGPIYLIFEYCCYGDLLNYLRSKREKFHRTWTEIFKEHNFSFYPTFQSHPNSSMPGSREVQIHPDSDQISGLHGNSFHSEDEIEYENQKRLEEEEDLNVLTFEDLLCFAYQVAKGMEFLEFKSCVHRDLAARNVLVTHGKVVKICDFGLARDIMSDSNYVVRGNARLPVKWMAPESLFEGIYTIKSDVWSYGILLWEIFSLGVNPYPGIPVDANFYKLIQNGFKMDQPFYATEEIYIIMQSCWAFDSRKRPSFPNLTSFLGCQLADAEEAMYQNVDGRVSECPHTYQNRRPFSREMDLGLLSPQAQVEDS
In words: FLT3 fluorescence polarization kinase assay. It counts as biochemical. The settings on record: 150 uM ATP; uncertainty ±10%. Here is the method: The FLT3 FP assay utilizes the fluorescein-labeled phosphopeptide and the anti-phosphotyrosine antibody included in the Panvera Phospho-Tyrosine Kinase Kit (Green) supplied by Invitrogen. When FLT3 phosphorylates polyGlu4Tyr, the fluorescein-labeled phosphopeptide is displaced from the anti-phosphotyrosine antibody by the phosphorylated poly Glu4Tyr, thus decreasing the FP value. The FLT3 kinase reaction is incubated at room temperature for 30 minutes under the following conditions: 10 nM FLT3 571-993, 20 ug/mL poly Glu4Tyr, 150 uM ATP, 5 mM MgCl2, 1% compound in DMSO. The kinase reaction is stopped with the addition of EDTA. The fluorescein-labeled phosphopeptide and the anti-phosphotyrosine antibody are added and incubated for 30 minutes at room temperature.
All data points are an average of triplicate samples. Inhibition and IC50 data analysis was done with GraphPad Prism using a non-linear regression fit with a multiparamater, sigmoidal dose-response (variable slope) equation.

The target of experiment [2] is T2, wild-type FLT3 receptor (Homo sapiens, UniProt P36888).
T2 construct: host or cells: Baf3 (murine B cell lymphoma line), stably transfected
T2 sequence (P36888 27-993): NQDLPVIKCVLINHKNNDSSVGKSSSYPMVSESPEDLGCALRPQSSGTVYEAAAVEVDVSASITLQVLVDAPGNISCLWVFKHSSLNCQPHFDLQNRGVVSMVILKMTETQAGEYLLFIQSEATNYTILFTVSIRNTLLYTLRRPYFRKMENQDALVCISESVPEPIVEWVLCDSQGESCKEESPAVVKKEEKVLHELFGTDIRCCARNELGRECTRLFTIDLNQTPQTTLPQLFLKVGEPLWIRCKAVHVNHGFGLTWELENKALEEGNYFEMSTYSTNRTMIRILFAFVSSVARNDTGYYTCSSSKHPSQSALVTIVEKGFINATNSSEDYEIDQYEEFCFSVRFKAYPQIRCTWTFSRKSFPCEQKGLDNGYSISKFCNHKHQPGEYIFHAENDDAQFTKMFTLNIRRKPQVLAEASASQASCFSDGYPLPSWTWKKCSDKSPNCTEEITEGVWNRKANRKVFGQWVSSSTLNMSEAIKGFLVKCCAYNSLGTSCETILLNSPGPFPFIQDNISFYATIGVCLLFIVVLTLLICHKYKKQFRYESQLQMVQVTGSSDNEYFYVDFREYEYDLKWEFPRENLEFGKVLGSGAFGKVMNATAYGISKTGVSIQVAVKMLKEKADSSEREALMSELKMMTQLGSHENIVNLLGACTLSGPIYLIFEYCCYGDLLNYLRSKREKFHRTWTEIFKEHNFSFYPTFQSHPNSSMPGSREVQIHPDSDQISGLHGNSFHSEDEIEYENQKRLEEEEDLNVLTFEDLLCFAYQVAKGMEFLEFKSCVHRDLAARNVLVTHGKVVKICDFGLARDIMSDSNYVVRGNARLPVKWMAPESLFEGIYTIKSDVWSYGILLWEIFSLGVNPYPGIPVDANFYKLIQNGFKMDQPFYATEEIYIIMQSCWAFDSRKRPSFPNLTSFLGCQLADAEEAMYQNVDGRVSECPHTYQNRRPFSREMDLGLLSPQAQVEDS
Put plainly: Cell-based FLT3 receptor ELISA (FLT ligand-induced phosphorylation in Baf3 FLT3 cells). The settings on record: 100 ng/mL Flt ligand, uncertainty ±20%. Here is the method:
Specific cellular inhibition of FLT ligand-induced wild-type FLT3 phosphorylation was measured in the following manner: Baf3 FLT3 cells overexpressing the FLT3 receptor were obtained from Dr. Michael Heinrich (Oregon Health and Sciences University). The Baf3 FLT3 cell lines were created by stable transfection of parental Baf3 cells (a murine B cell lymphoma line dependent on the cytokine IL-3 for growth) with wild-type FLT3. Cells were selected for their ability to grow in the absence of IL-3 and in the presence of FLT3 ligand. Baf3 cells were maintained in RPMI 1640 with 10% FBS, penn/strep and 10 ng/ml FLT ligand at 37° C., 5% CO2. To measure direct inhibition of the wild-type FLT3 receptor activity and phosphorylation a sandwich ELISA method was developed similar to those developed for other RTKs (see Sadick, M D, Sliwkowski, M X, Nuijens, A, Bald, L, Chiang, N, Lofgren, J A, Wong W L T. Analysis of Heregulin-Induced ErbB2 Phosphorylation with a High-Throughput Kinase Receptor Activation Enzyme-Linked Immunsorbent Assay, Analytical Biochemistry. 1996; 235:207-214 and Baumann C A, Zeng L, Donatelli R R, Maroney A C. Development of a quantitative, high-throughput cell-based enzyme-linked immunosorbent assay for detection of colony-stimulating factor-1 receptor tyrosine kinase inhibitors. J Biochem Biophys Methods. 2004; 60:69-79.). 200 μL of Baf3FLT3 cells (1×10^6 /mL) were plated in 96 well dishes in RPMI 1640 with 0.5% serum and 0.01 ng/mL IL-3 for 16 hours prior to 1 hour compound or DMSO vehicle incubation. Cells were treated with 100 ng/mL Flt ligand (R&D Systems Cat# 308-FK) for 10 min. at 37° C. Cells were pelleted, washed and lysed in 100 ul lysis buffer (50 mM Hepes, 150 mM NaCl, 10% Glycerol, 1% Triton-X-100, 10 mM NaF, 1 mM EDTA, 1.5 mM MgCl2, 10 mM NaPyrophosphate) supplemented with phosphatase (Sigma Cat# P2850) and protease inhibitors (Sigma Cat #P8340). Lysates were cleared by centrifugation at 1000×g for 5 minutes at 4° C. Cell lysates were transferred to white wall 96 well microtiter (Costar #9018) plates coated with 50 ng/well anti-FLT3 antibody (Santa Cruz Cat# sc-480) and blocked with SeaBlock reagent (Pierce Cat#37527). Lysates were incubated at 4° C. for 2 hours. Plates were washed 3× with 200 ul/well PBS/0.1% Triton-X-100. Plates were then incubated with 1:8000 dilution of HRP-conjugated anti-phosphotyrosine antibody (Clone 4G10, Upstate Biotechnology Cat#16-105) for 1 hour at room temperature. Plates were washed 3× with 200 ul/well PBS/0.1% Triton-X-100. Signal detection with Super Signal Pico reagent (Pierce Cat#37070) was done according to manufacturer's instruction with a Berthold microplate luminometer. All data points are an average of triplicate samples. […] Inhibition and IC50 data analysis was done with GraphPad Prism using a non-linear regression fit with a multiparamater, sigmoidal dose-response (variable slope) equation.

The test system of experiment [3] is MV4-11 cells. In words: Inhibition of MV4-11 cell proliferation (CellTiterGlo, 72 h). The experiment is classed as cell-based. The settings on record: Homo sapiens; 72 h growth inhibition; uncertainty ±20%. Here is the method: MV4-11 cells cannot grow and survive without active FLT3ITD.
To measure proliferation inhibition by test compounds, the luciferase based CellTiterGlo reagent (Promega), which quantifies total cell number based on total cellular ATP concentration, was used. Cells are plated at 10,000 cells per well in 100 ul of in RPMI media containing penn/strep, 10% FBS and 1 ng/ml GM-CSF or 1 ng/ml IL-3 for MV4-11 and Baf3 cells respectively.
Compound dilutions or 0.1% DMSO (vehicle control) are added to cells and the cells are allowed to grow for 72 hours at standard cell growth conditions (37° C., 5% CO2). For activity measurements in MV4-11 cells grown in 50% plasma, cells were plated at 10,000 cells per well in a 1:1 mixture of growth media and human plasma (final volume of 100 μL). To measure total cell growth an equal volume of CellTiterGlo reagent was added to each well, according to the manufacturer's instructions, and luminescence was quantified. Total cell growth was quantified as the difference in luminescent counts (relative light units, RLU) of cell number at Day 0 compared to total cell number at Day 3 (72 hours of growth and/or compound treatment). One hundred percent inhibition of growth is defined as an RLU equivalent to the Day 0 reading. Zero percent inhibition was defined as the RLU signal for the DMSO vehicle control at Day 3 of growth. All data points are an average of triplicate samples. […] Inhibition and IC50 data analysis was done with GraphPad Prism using a non-linear regression fit with a multiparamater, sigmoidal dose-response (variable slope) equation.
MV4-11 cells express the FLT3 internal tandem duplication mutation, and thus are entirely dependent upon FLT3 activity for growth. […] In contrast, the Baf3 cell proliferation is driven by the cytokine IL-3 and thus are used as a non-specific toxicity control for test compounds.

For `CN1CCC(Oc2ccc3c(C4CCN(C(=O)Nc5ccc(N6CCOCC6)cc5)CC4)ncnc3c2)CC1` [Example 127, 4-[7-(1-Methyl-piperidin-4-yloxy)-quinazolin-4-yl]-piperidine-1-carboxylic acid (4-morpholin-4-yl-phenyl)-amide], the IC50 in experiment [1] amounted to 260 nM; in experiment [2], 37 nM.
`COc1cc2ncnc(C3CCN(C(=O)Nc4ccc(C5CCNCC5)cc4)CC3)c2cc1OC` [Example 64, 4-(6,7-Dimethoxy-quinazolin-4-yl)-piperidine-1-carboxylic acid (4-piperidin-4-yl-phenyl)-amide]: the figures for the concentration for half-maximal inhibition (IC50) in experiment [3] and in experiment [2] were 330 nM and 357 nM, respectively.
Regarding `COC[C@H]1CCCN1c1ccc2c(C3CCN(C(=O)Nc4ccc(N5CCOCC5)cc4)CC3)ncnc2c1` [Example 130, (R)-4-[7-(2-Methoxymethyl-pyrrolidin-1-yl)-quinazolin-4-yl]-piperidine-1-carboxylic acid (4-morpholin-4-yl-phenyl)-amide], the figures for the IC50 in experiment [1] and in experiment [2] were 626 nM and 586 nM, respectively.
Take `COc1cc2ncnc(C3CCN(C(=O)Nc4ccc(Cl)cc4)CC3)c2cc1OC` [Example 49, 4-(6,7-Dimethoxy-quinazolin-4-yl)-piperidine-1-carboxylic acid (4-chloro-phenyl)-amide]: the half-maximal inhibitory concentration (IC50) in experiment [3] was 7000 nM; in experiment [2], > 3000 nM.
As to `COc1cc2ncnc(C3CCN(C(=O)Nc4ccc5c(c4)CCO5)CC3)c2cc1OC` [Example 27, 4-(6,7-Dimethoxy-quinazolin-4-yl)-piperidine-1-carboxylic acid (2,3-dihydro-benzofuran-5-yl)-amide], the IC50 in experiment [1] amounted to 2000 nM; in experiment [3], 4100 nM.
As to `O=C(Nc1ccc(N2CCOCC2)cc1)N1CCC(c2ncnc3cc(OCCCN4CCNCC4)ccc23)CC1` [Example 123, 4-[7-(3-Piperazin-1-yl-propoxy)-quinazolin-4-yl]-piperidine-1-carboxylic acid (4-morpholin-4-yl-phenyl)-amide], the IC50 amounted to 8 nM in experiment [1] and 2 nM in experiment [2].
Take `CC(C)c1ccc(NC(=O)N2CCC(c3ccnc4ccccc34)CC2)cc1` [Example 5, 4-Quinolin-4-yl-piperidine-1-carboxylic acid (4-isopropyl-phenyl)-amide]: the values for the half-maximal inhibitory concentration (IC50) in experiment [1] and in experiment [3] were 94 nM and 290 nM, respectively.

The values are drawn from US20070004660A1, “Synergistic Modulation of Flt3 Kinase Using Alkylquinolines and Alkylquinazolines” (priority 2005, published 2007).
